Measurements reported in patent US20050026847A1, “Methods for treating, preventing, or inhibiting injuries, cell membrane stabilization, and calcium mobilization using pseudopterosin compounds” (priority 2003, published 2005).

Experiments:
T. thermophila = test: Phagocytosis activity assay (India ink phagosome formation); assay type: cell-based, Tetrahymena thermophila; conditions: for effect on rate of phagosome formation / phagocytic activity: 10 minutes drug/ink exposure, FIGS. 2-4; for effect of Pertussis toxin pretreatment on the compound's effect on phagocytosis: Pertussis toxin pretreatment (5 minutes), FIGS. 5-6
Experimental: Log-phase T. thermophila cultures were grown in 2% protease peptone, at 25° C. The cells were washed and resuspended in 10 mM HEPES, pH 7.4 (250,000 cells/ml). Test compounds were mixed with diluted India ink (1:25, v:v) in order to visualize the newly formed phagosomes. At t=0, the drug/ink mixture was added to the Tetrahymena cells, and at t=10 minutes, […] samples of cell suspension were removed and fixed in 10% formaldehyde. At least about 100 random cells from each sample were then examined using a light microscope. Phagocytic activity was assessed by calculating the ratio of cells with food vacuoles compared to the cells with no food vacuoles.

Tetrahymena cells = test: Ca++ signaling assay (Calcium Orange fluorescence, intracellular calcium release); assay type: cell-based, Tetrahymena thermophila; conditions: for effect of Pertussis toxin pretreatment on the compound's calcium release activity: 0.5 μg/ml Pertussis toxin for 5 minutes prior to treatment
Experimental: Cell density was adjusted to 500,000 cells/ml using a 10 mM HEPES and 2.5 mM Probenecid buffer (pH 7.4) (Sigma, St. Louis, Mo.). The cells were loaded with 3 μM Calcium Orange AM ester (Molecular Probes, Eugene, Oreg.) for 90 minutes in the dark. The cells were washed, resuspended in buffer, and incubated for 1 hour to allow de-esterification of the fluorescent probe. The cells were washed twice and placed in a 2 ml quartz cuvet. Calcium release was measured by an LS50B Perkin Elmer Fluorimeter (Ex=549, Em=576) (Perkin Elmer, Wellesley, Mass.) for a 20 minute period. The cells were exposed to the test compounds for 20 minutes and then the fluorescence was recorded. In some experiments, the cells were pretreated with 0.5 μg/ml Pertussis toxin for 5 minutes. FIGS. 7A-7C show Tetrahymena cells loaded with Calcium Orange under fluorescence microscopy (X400). Upon calcium binding to calcium orange, the intensity increases thereby indicating the release of intracellular calcium. FIG. 7A is a control.

[1] = Cell-free hydrogen peroxide scavenging (direct antioxidant) assay; conditions: 50 μM
Experimental: A mixture of hydrogen peroxide and water without cells was mixed with the DCFH-DA dye and 82U of esterase as described above. To this mixture the drugs were added and results monitored on the fluorimeter.

[2] = test system: Heterocapsa pygmaea cells; test: Injury response assay, physical injury (ultrasound-induced oxidative burst, H2O2 by DCFH-DA); assay type: cell-based; conditions: FIG. 16, read-out: inhibition of oxidative burst in injured cells
Experimental: The released reactive oxygen species were calibrated to H2O2, the least labile of the group. […] Specifically, by homogenization in a blender with 0.22 μm filtered seawater and 10 mM EDTA, and filtered through 4 layers of cheesecloth. Algal symbionts were pelleted out by centrifugation at 250×g and subsequently washed 10 times with 40 ml clean filtered seawater and pelleted by centrifugation at 750×g. The cells were further purified on Percoll® (Sigma, St. […] DNA staining using DAPI detected on epifluorescence microscopy was used to detect contaminants due to bacterial or coral cells. Cells isolated from live coral were diluted to a final concentration of about 5×10^5 cells/ml using a hemocytometer and maintained in filtered seawater. Heterocapsa pygmaea is grown in culture in F-1 media without silica. The cells were harvested in log growth phase and diluted to about 5×10^5 cells/ml using a hemocytometer. […] H2O2 concentration was calculated from a standard curve from DCFH-DA fluorescence (0.05 mM, redox sensitive probe, requires esterase (82 U) for detection of H2O2). Fluoresence was measured using a Perkin Elmer LS50B Fluorimeter, excitation 488 nm and emission 525 nm.

H. pygmaea cells = test: Injury response assay, chemical injury (mastoparan-induced oxidative burst); assay type: cell-based, Heterocapsa pygmaea; conditions: 10 μM, FIG. 14
Experimental: (§1) To determine the protective effect of pseudopterosin compounds against chemical injury, mastoparan was administered to test cells and released reactive oxygen species calibrated to H2O2 was measured as an indicator of injury.
(§2) Symbiodinium spp. cells were isolated, prepared and identified as described in Example 3. Heterocapsa pygmaea was grown in culture in F-1 media without silica. The cells were harvested in log growth phase and diluted to about 5×10^5 cells/ml using a hemocytometer. […] The oxidative burst was prevented or inhibited by about 71% by incubating the H. pygmaea cells with a mixture comprising 25 μM of pseudopterosin compounds for 1 hour prior to exposure to mastoparan.
(§3) H2O2 concentration was calculated from a standard curve from DCFH-DA fluorescence (0.05 mM, redox sensitive probe, requires esterase (82 U) for detection of H2O2). Fluorescence was measured using a Perkin Elmer LS50B Fluorimeter, excitation 488 nm and emission 525 nm.

Symbiodinium spp. cells = test: Injury response assay, chemical injury (mastoparan) in Symbiodinium; assay type: cell-based; conditions: 10 μM, FIG. 14
Experimental: as §1, §2, §3

| Molecule | effect on rate of phagosome formation / phagocytic activity (T. thermophila) | effect of Pertussis toxin pretreatment on the compound's effect on phagocytosis (T. thermophila) | effect of Pertussis toxin pretreatment on the compound's calcium release activity (Tetrahymena cells) | other results |
| --- | --- | --- | --- | --- |
| CC(C)=C[C@H]1C[C@H](C)[C@H]2CC[C@H](C)c3c(O[C@@H]4OC[C@@H](O)[C@H](O)[C@H]4O)c(O)c(C)c1c32 [PsA, Pseudopterosin A] | decreases the rate of phagosome formation in a dose dependent manner | completely blocks the effect of PsA on phagocytosis | Pertussis toxin blocks PsA activity | effect of mastoparan on PsA activity (Tetrahymena cells; FIG. 10A): Mastoparan does not inhibit PsA; effect of Verapamil or Gd3+ on the effects of PsA (intracellular calcium release and phagosome formation) (Tetrahymena cells; T. thermophila): not inhibited by Verapamil or Gd^3+; effect of suramin pretreatment on PsA activity (Tetrahymena cells; suramin pretreatment (5 minutes), FIG. 10B): blocks PsA activity |
| O=C1O[C@H]([C@@H](O)CO)C(O)=C1O [ascorbic acid] |  |  |  | immediate reduction of the fluorescent signal in cell free system [1]: about 60% |
| c1ccc2c(c1)[I+]c1ccccc1-2 [DPI, Diphenylene iodonium chloride] |  |  |  | inhibition at 50 µM [2]: ~96% |
| [Ca+2].[Cl-].[Cl-] [CaCl2] | increases the rate of phagocytic activity |  |  |  |
| COc1ccc2c(c1)CC[C@@H]1[C@@H]2CC[C@]2(C)[C@@H](NCCCCCCN3C(=O)C=CC3=O)CC[C@@H]12 [Pseudopterosin U73122] |  | not blocked by Pertussis toxin pretreatment | Pertussis toxin does not inhibit U73122 activity |  |
| mastoparan |  |  | inhibits the effects of mastoparan | effect of mastoparan on oxidative burst in H. pygmaea (H. pygmaea cells): cause a large oxidative burst; effect of mastoparan on Symbiodinium spp. cells (Symbiodinium spp. cells): no effect |
